Assay results as given in ChEMBL document CHEMBL1201862, “PubChem BioAssay data set” (2004).
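Five compound concentrations were applied to cells in 96-well plates for 48 hours; endpoints were derived by simple linear interpolation of the resulting dose-response curve. Here, GI50 denotes the concentration required for 50% inhibition of growth.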 Activity calls are given as the source filed them. No stated cut-off is given here; in the data, active = GI50 up to about 1.1 µM and inactive = higher.

Legend:
Assay in all cases: NCI-60 cell line screen, 48 h
COLO 205 = test system: COLO 205
OVCAR-5 = test system: OVCAR-5
RXF 393 = test system: RXF 393
HOP-18 = test system: HOP-18
OVCAR-8 = test system: OVCAR-8
NCI-H226 = test system: NCI-H226
HT-29 = test system: HT-29
HL-60 = test system: HL-60
NCI-H460 = test system: NCI-H460
NCI-H522 = test system: NCI-H522
SR = test system: SR
SF-295 = test system: SF-295
A549 = test system: A549
SF-268 = test system: SF-268
NCI-H23 = test system: NCI-H23
DMS-114 = test system: DMS-114
CAKI-1 = test system: CAKI-1
SNB-75 = test system: SNB-75
ACHN = test system: ACHN
DLD-1 = test system: DLD-1
SN12C = test system: SN12C
KM12 = test system: KM12
SK-MEL-2 = test system: SK-MEL-2
SW-620 = test system: SW-620
Malme-3M = test system: Malme-3M
HOP-92 = test system: HOP-92
DMS-273 = test system: DMS-273
SNB-78 = test system: SNB-78
LXFL 529 = test system: LXFL 529
SK-MEL-5 = test system: SK-MEL-5
UACC-257 = test system: UACC-257
EKVX = test system: EKVX
LOX IMVI = test system: LOX IMVI
M19-MEL = test system: M19-MEL
KM-20L2 = test system: KM-20L2
M14 = test system: M14
SNB-19 = test system: SNB-19
U-251 = test system: U-251
786-0 = test system: 786-0
TK-10 = test system: TK-10
SK-MEL-28 = test system: SK-MEL-28
UO-31 = test system: UO-31
SF-539 = test system: SF-539
HCC 2998 = test system: HCC 2998
HOP-62 = test system: HOP-62
MOLT-4 = test system: MOLT-4
CCRF-CEM = test system: CCRF-CEM
OVCAR-3 = test system: OVCAR-3
RPMI-8226 = test system: RPMI-8226
OVCAR-4 = test system: OVCAR-4
A498 = test system: A498
IGROV-1 = test system: IGROV-1
SK-OV-3 = test system: SK-OV-3
HCT-116 = test system: HCT-116
UACC-62 = test system: UACC-62
K562 = test system: K562

Measured: GI50

COCC(O)CN1C(N)=NC(O)C1O (centres undefined)
inactive: COLO 205 > 100 µM | OVCAR-5 > 100 µM | RXF 393 > 100 µM | HOP-18 > 100 µM | OVCAR-8 > 100 µM | NCI-H226 > 100 µM | HT-29 > 100 µM | HL-60 > 100 µM | NCI-H460 > 100 µM | NCI-H522 > 100 µM | SR > 100 µM | SF-295 > 100 µM | A549 > 100 µM | SF-268 > 100 µM | NCI-H23 > 100 µM | DMS-114 > 100 µM | CAKI-1 > 100 µM | SNB-75 > 100 µM | ACHN > 100 µM | DLD-1 > 100 µM | SN12C > 100 µM | KM12 > 100 µM | SK-MEL-2 > 100 µM | SW-620 > 100 µM | Malme-3M > 100 µM | HOP-92 > 100 µM | DMS-273 > 10 µM | SNB-78 > 100 µM | LXFL 529 > 100 µM | SK-MEL-5 > 100 µM | UACC-257 > 100 µM | EKVX > 100 µM | LOX IMVI > 100 µM | M19-MEL > 100 µM | KM-20L2 > 100 µM | M14 > 100 µM | SNB-19 > 100 µM | U-251 > 100 µM | 786-0 > 100 µM | TK-10 > 100 µM | SK-MEL-28 > 100 µM | UO-31 > 100 µM | SF-539 > 100 µM | HCC 2998 > 100 µM | HOP-62 > 100 µM

CC(C)[Si](OCC1CC(C[C@H]2CC(C[C@H]3C[C@@H](CO[Si](C(C)C)(C(C)C)C(C)C)OC(C)(C)O3)OC(C)(C)O2)OC(C)(C)O1)(C(C)C)C(C)C (some centres undefined)
inactive: COLO 205 > 100 µM | OVCAR-5 > 100 µM | RXF 393 > 100 µM | MOLT-4 > 100 µM | HOP-18 > 100 µM | OVCAR-8 > 100 µM | NCI-H226 > 100 µM | HT-29 > 100 µM | HL-60 > 100 µM | NCI-H460 > 100 µM | NCI-H522 > 100 µM | SR > 100 µM | SF-295 > 100 µM | A549 > 100 µM | SF-268 > 100 µM | NCI-H23 > 100 µM | DMS-114 > 100 µM | CAKI-1 > 100 µM | CCRF-CEM > 100 µM | OVCAR-3 > 100 µM | SNB-75 > 100 µM | ACHN > 100 µM | DLD-1 > 100 µM | RPMI-8226 > 100 µM | OVCAR-4 > 100 µM | A498 > 100 µM | KM12 > 100 µM | SK-MEL-2 > 100 µM | SW-620 > 100 µM | Malme-3M > 100 µM | HOP-92 > 100 µM | DMS-273 > 100 µM | SNB-78 > 100 µM | IGROV-1 > 100 µM | SK-MEL-5 > 100 µM | UACC-257 > 100 µM | SK-OV-3 > 100 µM | EKVX > 100 µM | LOX IMVI > 100 µM | M19-MEL > 100 µM | KM-20L2 > 100 µM | M14 > 100 µM | HCT-116 > 100 µM | SNB-19 > 100 µM | UACC-62 > 100 µM | U-251 > 100 µM | K562 > 100 µM | 786-0 > 100 µM | TK-10 > 100 µM | SK-MEL-28 > 100 µM | UO-31 > 100 µM | SF-539 > 100 µM | HCC 2998 > 100 µM | HOP-62 > 100 µM
